# Assay results published in patent publication US20240285571A1, “METHODS OF TREATING BONE INFECTIONS” (MICROBION CORPORATION, priority 2020, published 2024).
# Where two headings read alike, the source gives them in different places.
# Assays:
# S. agalactiae = assay: Broth microdilution MIC (Example 5); type: cell-based; details: Streptococcus agalactiae
# Method: (§1) Test and Comparator Agents: The test agents were stored at room temperature until assayed. […] The stock solutions were allowed to stand for at least 1 hr prior to use to auto-sterilize.
# (§2) TestMedia: Test media were prepared and stored in accordance with guidelines from CLSI (4, 6, 7).
# (§3) Broth Microdilution MC Testing (Aerobic Bacteria and Yeast): The broth microdilution assay method employed for the susceptibility testing of aerobic bacteria (excluding N. gonorrhoeae which was evaluated by agar dilution) and yeast essentially followed the procedures described by CLSI (3, 4, 7, 8) and employed automated liquid handlers to conduct serial dilutions and liquid transfers. […] These would become the ‘mother plates’ from which ‘daughter’ or test plates would be prepared. The drugs (300 μL at 40× the desired top concentration in the test plates) were dispensed into the appropriate well in Column 1 of the mother plates. The Biomek 2000 was used to make serial two-fold dilutions through Column 11 in the “mother plate”. The wells of Column 12 contained no drug and ultimately served as the organism growth control wells.
# (§4) The daughter plates were prepared using the Biomek FX which transferred 5 μL of drug solution from each well of a mother plate to the corresponding well of the correct daughter plate in a single step.
# (§5) A standardized inoculum of each organism was prepared per CLSI methods (3, 7). Isolated colonies of each test isolate were picked from the primary plate and a suspension was prepared to equal a 0.5 McFarland turbidity standard. Standardized suspensions were then diluted […] (1:100 for yeast, 1:20 for bacteria). After dilution, the inoculum suspensions were then transferred to compartments of sterile reservoirs divided by length (Beckman Coulter), and the Biomek 2000 was used to inoculate all plates. Daughter plates were placed on the Biomek 2000 in reverse orientation so that plates were inoculated from low to high drug concentration.
# (§6) The Biomek 2000 delivered 10 μL of standardized inoculum into each well of the appropriate daughter plate for an additional 1:20 dilution.
# (§7) Plates were stacked 4 high, covered with a lid on the top plate, placed into plastic bags, and incubated at 35° C. for approximately 24-48 hr for all yeast isolates and 16-24 hr for aerobic bacteria. Plates were viewed from the bottom using a plate viewer. […] MIC endpoints for the test agents and control compounds were read per CLSI criteria (3, 7).
# E. faecium = assay: Broth microdilution MIC (Example 5); type: cell-based
# Method: as §1, §2, §3, §4, §5, §6, §7
# S. pneumoniae [1] = assay: Broth microdilution MIC (Example 5); type: cell-based; details: Streptococcus pneumoniae
# Method: as §1, §2, §3, §4, §5, §6, §7
# S. pyogenes = assay: Broth microdilution MIC (Example 5); type: cell-based
# Method: as §1, §2, §3, §4, §5, §6, §7
# E. faecalis = assay: Broth microdilution MIC (Example 5); type: cell-based, Enterococcus faecalis; details: VRE
# Method: as §1, §2, §3, §4, §5, §6, §7
# [2] = system: vancomycin-intermediate Staphylococcus aureus; assay: Broth microdilution MIC (Example 6); type: cell-based; details: Staphylococcus aureus, NRS 13 / VISA, read-out: MIC values
# Method: Test Compounds: The test agents BisEDT (MB-1-B3; Lot No. ED268-1-11-01), MB-2B, and MB-6 were stored at room temperature, in the dark, until assayed. The solvent and diluent for the test agents was DMSO (Sigma; St. Louis, MO; Lot No. SHBB9319V) and the prepared stock concentration was 6,464 μg/mL (101× the final test concentration).
# Test compounds were evaluated at a concentration range of 0.06-64 μg/mL. For Gram-negative test isolates, amikacin and ceftazidime (alone and with clavulanate at a fixed concentration of 4 μg/mL) were evaluated over a concentration range of 0.06-64 μg/mL; meropenem and levofloxacin were evaluated over a concentration range of 0.008-8 μg/mL. For the testing of S. aureus, clindamycin, daptomycin, levofloxacin and vancomycin were evaluated at a concentration range of 0.008-8 μg/mL; linezolid was tested from 0.03-32 μg/mL.
# Media: Cation-adjusted Mueller Hinton broth (CAMHB; BD; Lot No. 8190586) was used as the medium for testing (2, 3). For testing daptomycin, calcium was supplemented with […] Ca^2+, resulting in a final concentration of […] Ca^2+ (2, 3).
# MIC Assay Procedure: MIC values were determined using a broth microdilution procedure described by CLSI (2, 3). Automated liquid handlers (Multidrop 384, Labsystems, Helsinki, Finland; Biomek 2000 and Biomek F X, Beckman Coulter, Fullerton CA) were used to conduct serial dilutions and liquid transfers.
# To prepare the drug mother plates, which would provide the serial drug dilutions for the replicate daughter plates, the wells of columns 2 through 12 of standard 96-well microdilution plates (Costar 3795) were filled with 150 μl of the appropriate diluent for each row of drug. The test articles and comparator compounds (300 μl at 101× the highest concentration to be tested) were dispensed into the appropriate wells in column 1. The Biomek 2000 was then used to make 2-fold serial dilutions in the mother plates from column 1 through column 11. The wells of column 12 contained no drug and served as the organism growth control wells for the assay.
# The daughter plates were loaded with 190 μL per well of RPMI using the Multidrop 384. The test panels were prepared on the Biomek FX instrument which transferred 2 μL of drug solution from each well of a mother plate to the corresponding well of each daughter plate in a single step.
# A standardized inoculum of each test organism was prepared per CLSI methods to equal a 0.5 McFarland standard, followed by a dilution of 1:20. The plates were then inoculated with 10 μL of the diluted inoculum using the Biomek 2000 from low to high drug concentration resulting in a final concentration of approximately 5×10^5 CFU/mL.
# Plates were stacked 3-4 high, covered with a lid on the top plate, placed into plastic bags, and incubated at 35° C. for 16 to 20 hr (vancomycin was read for S. aureus after 24 hr incubation time). The MIC was recorded as the lowest concentration of drug that inhibited visible growth of the organism.
# S. aureus = assay: Broth microdilution MIC (Example 5); type: cell-based, Staphylococcus aureus; details: Staphylococcus aureus
# Method: as §1, §2, §3, §4, §5, §6, §7
# S. pneumoniae [3] = details: S. pneumoniae MMX 6837 (ATCC 49619); cited from earlier work
# C. parapsilosis = C. parapsilosis MMX 2323 (ATCC 22019), cited from earlier work
compound,measurement,setting,value
CN[C@H](CC(C)C)C(=O)N[C@H]1C(=O)N[C@@H](CC(N)=O)C(=O)N[C@H]2C(=O)N[C@H]3C(=O)N[C@H](C(=O)N[C@H](C(=O)O)c4cc(O)cc(O)c4-c4cc3ccc4O)[C@H](O)c3ccc(c(Cl)c3)Oc3cc2cc(c3O[C@@H]2O[C@H](CO)[C@@H](O)[C@H](O)[C@H]2O[C@H]2C[C@](C)(N)[C@H](O)[C@H](C)O2)Oc2ccc(cc2Cl)[C@H]1O [Vancomycin],MIC,"S. agalactiae; S. agalactiae MMX 3741, ERYR CCR",0.5 mg/L
same,MIC,"S. agalactiae; S. agalactiae MMX 3743, ERYR CCR",0.5 mg/L
same,MIC,"S. agalactiae; S. agalactiae MMX 4077, ERYR CCR",0.5 mg/L
same,MIC,"S. agalactiae; S. agalactiae MMX 4079, ERYR CCR PenR MEMR",2 mg/L
same,MIC,"S. agalactiae; S. agalactiae MMX 4086, ERYR CCR",1 mg/L
same,MIC,"E. faecium; E. faecium MMX 485, VRE vanA",>64 mg/L
same,MIC,"E. faecium; Enterococcus faecium, VRE",> 64 mg/L
same,MIC,"S. pneumoniae [1]; ATCC49619, S. pneumoniae MMX 6837 (ATCC 49619), QC",0.25 mg/L
same,MIC,"S. pneumoniae [1]; S. pneumoniae MMX 880, LevR SXTR CCR EryR PenR",0.5 mg/L
same,MIC,"S. pneumoniae [1]; S. pneumoniae MMX 937, MemR SXTR CCR EryR PenR",0.5 mg/L
same,MIC,"S. pneumoniae [1]; S. pneumoniae MMX 3959, CCR EryR",0.5 mg/L
same,MIC,"S. pneumoniae [1]; S. pneumoniae MMX 5440, MemR SXTR CCR EryR PenR",0.25 mg/L
same,MIC,"S. pneumoniae [1]; S. pneumoniae MMX 5445, MemR SXTR CCR EryR PenR",0.25 mg/L
same,MIC,"S. pneumoniae [1]; S. pneumoniae MMX 8133, MemR SXTR CCR EryR PenR",0.25 mg/L
same,MIC,"S. pyogenes; S. pyogenes MMX 3820, ERYR CLIR",0.5 mg/L
same,MIC,"S. pyogenes; S. pyogenes MMX 3919, ERYR",0.5 mg/L
same,MIC,"S. pyogenes; S. pyogenes MMX 3929, ERYR CCR",0.5 mg/L
same,MIC,"S. pyogenes; S. pyogenes MMX 5091, ERYR CCR",0.5 mg/L
same,MIC,S. pyogenes; Streptococcus pyogenes,0.5 mg/L
same,MIC,E. faecalis; E. faecalis MMX 8961,>64 mg/L
same,MIC,E. faecalis; E. faecalis MMX 8962,>64 mg/L
same,MIC,E. faecalis; Enterococcus faecalis,> 64 mg/L
same,MIC,[2],2 mg/L
same,MIC,"S. aureus; ATCC 29213 / MSSA, S. aureus MMX 101 (ATCC 29213), QC, MSSA",1 mg/L
same,MIC,"S. aureus; MRSA, S. aureus MMX 5373",2 mg/L
same,MIC,"S. aureus; MRSA, S. aureus MMX 6311",0.25 mg/L
same,MIC,"S. aureus; MRSA, S. aureus MMX 9203",2 mg/L
same,MIC,"S. aureus; MRSA, S. aureus MMX 9204",1 mg/L
same,MIC,"S. aureus; MRSA, S. aureus MMX 9205",2 mg/L
same,CLSI QC range of MIC,S. pneumoniae [3],(0.12-0.5) μg/mL
OC(Cn1cncn1)(Cn1cncn1)c1ccc(F)cc1F [Fluconazole],CLSI QC range of MIC,C. parapsilosis; 24 hr,0.5 to 4 mg/L
same,CLSI QC range of MIC,C. parapsilosis; 48 hr,1 to 4 mg/L
